Measured values taken from PMC9415638, “Discovery of novel thiazolyl-pyrazolines as dual EGFR and VEGFR-2 inhibitors endowed with in vitro antitumor activity towards non-small lung cancer” (Journal of Enzyme Inhibition and Medicinal Chemistry, 2022).

Legend:
[1] = molecular target: CDK1 (Homo sapiens, UniProt P06493); assay: Kinase selectivity profiling, Z'-LYTE FRET
[2] = system: NCI-H1650 cells (EGFR exon19 deletion delE746-A750); assay: MTT assay on EGFR-mutated NSCLC cells; assay type: cell-based; conditions: Homo sapiens
Method: (§1) All chemicals used in this study were analytical or cell-culture grade.
(§2) Cytotoxicity was measured using the MTT assay. […] The medium was aspirated and 150 μL DMSO was added to solubilise MTT formazan crystals. The plates were then shaken, and the optical density was determined at 570 nm using an ELISA plate reader (Model 550, Bio-Rad, Hercules, CA). At least three independent experiments were performed.

[3] = system: NCI-H1975 cells (EGFR L858R/T790M); assay: MTT assay on EGFR-mutated NSCLC cells; assay type: cell-based; conditions: Homo sapiens, EGFR L858R/T790M double mutation
Method: as §1, §2

[4] = system: A549 cells migration; assay: Scratch wound healing assay; assay type: cell-based, human; conditions: 36 h, vs control
Method: Figure 5. Effect of compounds 10b and 10d on A549 cells migration. […] Representative images of scratched areas in confluent A549 cell layers.
A549 cells were seeded and incubated in 6-well cell culture plates till reaching confluence. Then, the confluent monolayers were scratched to form a “wound” using a sterile needle. The cells were treated with either vehicle as a control, 10b or 10d for 36 h. The images were recorded at 0 and 36 h to monitor the migration of cells into the wounded area using a light photomicroscope.

[5] = system: BT-549 breast cancer cells; assay: Anti-proliferative MTT assay; assay type: cell-based; conditions: Homo sapiens, 24 h, read-out: % Growth inhibition ± SEM BT-549
Method in brief: (§3)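 MTT read-out after 24 h compound treatment of cells seeded overnight at 1 × 10^4 cells/well, then 4 h MTT (2 mg/mL in PBS) at 37 °C. Formazan dissolved in DMSO, OD at 570 nm. IC50 from ≥3 independent experiments; preliminary screen at single 10 µM dose gave %GI.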

[6] = system: HCC70 breast cancer cells; assay: Anti-proliferative MTT assay; assay type: cell-based; conditions: Homo sapiens, 24 h, read-out: % Growth inhibition ± SEM HCC70
Method in brief: as §3

[7] = system: K562 leukaemia cells; assay: Anti-proliferative MTT assay; assay type: cell-based; conditions: Homo sapiens, 24 h, read-out: % Growth inhibition ± SEM K562
Method in brief: as §3

[8] = system: MCF-7 breast cancer cells; assay: Anti-proliferative MTT assay; assay type: cell-based; conditions: Homo sapiens, MCF7, 24 h, read-out: % Growth inhibition ± SEM MCF-7
Method in brief: as §3

[9] = system: HCT116 colon cancer cells; assay: Anti-proliferative MTT assay; assay type: cell-based; conditions: Homo sapiens, HCT-116, 24 h, read-out: % Growth inhibition ± SEM HCT116
Method in brief: as §3

[10] = system: A549 cells; assay: Cell cycle analysis by flow cytometry (7AAD); assay type: cell-based, human; conditions: A549, 24 h; untreated controls 6.06% and 5.93%
Method: Figure 6. […] (A) Representative cell cycle distribution data are shown by flow cytometric analysis upon incubation with 0 (control), 2.5 or 5 μM of 10b or 10d or with 0 (control), 5 or 20 μM of gefitinib for 24 h. (B) Quantification of cell cycle distribution upon 24 h incubation with 10b or 10d.
DNA content was measured using 7-aminoactinmycin D (7AAD) (Biotium, Inc., Hayward, CA) staining and is commonly used for cell cycle phase analysis as previously described. Apoptosis was evaluated using the annexin V/propidium iodide (PI) staining kit (BioLegend, San Diego, CA) according to the manufacturer’s instructions and as previously described.

[11] = molecular target: CDK5 (Homo sapiens, UniProt Q00535); assay: Kinase selectivity profiling, Z'-LYTE FRET
CDK5, sequence (Q00535 whole entry): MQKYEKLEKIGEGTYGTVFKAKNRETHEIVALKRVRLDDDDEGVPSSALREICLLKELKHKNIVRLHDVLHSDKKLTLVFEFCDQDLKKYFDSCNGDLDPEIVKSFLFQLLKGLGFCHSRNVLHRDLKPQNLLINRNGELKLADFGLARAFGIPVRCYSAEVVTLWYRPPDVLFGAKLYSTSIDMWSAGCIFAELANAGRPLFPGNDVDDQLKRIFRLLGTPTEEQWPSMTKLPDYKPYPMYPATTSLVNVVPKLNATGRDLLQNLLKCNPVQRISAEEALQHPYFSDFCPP
CDK5, sequence (Q15078 whole entry partner): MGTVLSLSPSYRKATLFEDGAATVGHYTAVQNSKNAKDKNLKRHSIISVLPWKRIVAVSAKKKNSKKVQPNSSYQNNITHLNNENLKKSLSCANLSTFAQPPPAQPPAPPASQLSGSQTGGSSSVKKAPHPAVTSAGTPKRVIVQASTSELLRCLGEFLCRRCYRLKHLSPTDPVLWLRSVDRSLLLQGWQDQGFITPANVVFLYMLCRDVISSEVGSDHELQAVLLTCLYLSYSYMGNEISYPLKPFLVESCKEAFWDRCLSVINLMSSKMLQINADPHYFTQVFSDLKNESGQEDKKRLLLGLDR

[12] = molecular target: SYK (Homo sapiens, UniProt P43405); assay: Kinase selectivity profiling, Z'-LYTE FRET
[13] = molecular target: EGFR (Homo sapiens, UniProt P00533); assay: EGFR kinase assay (PGT-coated 96-well plates); assay type: biochemical; conditions: read-out: IC50 (nM) ± SEM EGFR
EGFR, sequence (P00533 25-1210): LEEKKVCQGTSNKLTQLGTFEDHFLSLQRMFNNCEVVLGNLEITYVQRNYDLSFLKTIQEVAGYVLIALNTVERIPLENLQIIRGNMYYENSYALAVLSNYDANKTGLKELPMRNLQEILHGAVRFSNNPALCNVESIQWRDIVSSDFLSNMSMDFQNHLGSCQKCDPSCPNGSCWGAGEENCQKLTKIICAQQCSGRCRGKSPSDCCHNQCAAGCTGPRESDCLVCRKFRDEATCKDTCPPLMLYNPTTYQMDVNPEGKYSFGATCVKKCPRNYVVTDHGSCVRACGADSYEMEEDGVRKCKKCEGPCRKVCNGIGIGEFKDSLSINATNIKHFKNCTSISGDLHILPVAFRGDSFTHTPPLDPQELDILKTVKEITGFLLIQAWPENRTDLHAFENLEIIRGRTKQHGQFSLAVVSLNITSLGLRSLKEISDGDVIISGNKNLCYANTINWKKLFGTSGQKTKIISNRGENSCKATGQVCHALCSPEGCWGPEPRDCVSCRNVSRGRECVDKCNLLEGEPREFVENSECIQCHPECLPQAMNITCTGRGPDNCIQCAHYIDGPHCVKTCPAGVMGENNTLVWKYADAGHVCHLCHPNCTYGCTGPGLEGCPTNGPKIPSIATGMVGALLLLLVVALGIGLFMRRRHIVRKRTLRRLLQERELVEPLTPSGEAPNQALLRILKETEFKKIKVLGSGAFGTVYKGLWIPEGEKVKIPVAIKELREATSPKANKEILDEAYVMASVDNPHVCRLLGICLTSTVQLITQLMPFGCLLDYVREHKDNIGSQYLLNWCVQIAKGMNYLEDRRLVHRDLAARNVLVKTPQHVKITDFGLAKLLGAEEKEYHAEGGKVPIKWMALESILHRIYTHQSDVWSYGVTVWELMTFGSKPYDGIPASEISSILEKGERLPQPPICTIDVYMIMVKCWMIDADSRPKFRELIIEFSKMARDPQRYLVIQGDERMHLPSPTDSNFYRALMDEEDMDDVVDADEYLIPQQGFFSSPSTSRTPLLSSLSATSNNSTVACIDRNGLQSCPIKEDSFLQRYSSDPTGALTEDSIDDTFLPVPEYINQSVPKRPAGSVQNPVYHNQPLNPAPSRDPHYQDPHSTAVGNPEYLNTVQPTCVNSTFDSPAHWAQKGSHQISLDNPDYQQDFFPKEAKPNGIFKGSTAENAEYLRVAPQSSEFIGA
Method: The EGFR kinase assay was carried out in 96-well plates coated with PGT (poly l-glutamic acid l-tyrosine, 4:1, Sigma Aldrich, St. Louis, MO) as previously described. IC50 values were calculated using GraphPad Prism 5. Each experiment was carried out at least three times. The VEGFR-2 kinase assay was carried out in 96-well streptavidin coated plate using recombinant human VEGFR-2/KDR ELISA kit according to manufacturer’s instructions.

[14] = system: p-EGFR; assay: Western blotting in A549 cells; assay type: cell-based, human; conditions: Western blot, vs untreated control
Text: (§4) Figure 3. […] (B) The relative protein expression level of p-EGFR normalised with total EGFR was quantified by the Image J software (C) The relative protein expression level of p-VEGFR-2 normalised with total VEGFR-2. The values are expressed as the mean ± SEM based on three different experiments. ***p < 0.001 indicate a significant difference compared with control.
(§5) The protein extraction and quantification were done as previously described.

[15] = system: p-VEGFR-2; assay: Western blotting in A549 cells; assay type: cell-based, human; conditions: Western blot, vs untreated control
Text: as §4, §5

CDK1, sequence (P06493 whole entry): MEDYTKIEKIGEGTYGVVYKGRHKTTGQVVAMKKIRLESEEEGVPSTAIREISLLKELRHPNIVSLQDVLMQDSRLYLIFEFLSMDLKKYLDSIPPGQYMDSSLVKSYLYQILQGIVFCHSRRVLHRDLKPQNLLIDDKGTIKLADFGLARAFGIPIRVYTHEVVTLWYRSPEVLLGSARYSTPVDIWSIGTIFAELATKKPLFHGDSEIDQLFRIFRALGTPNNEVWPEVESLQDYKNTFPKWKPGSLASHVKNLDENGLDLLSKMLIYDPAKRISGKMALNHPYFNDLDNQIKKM
CDK1, sequence (P14635 whole entry partner): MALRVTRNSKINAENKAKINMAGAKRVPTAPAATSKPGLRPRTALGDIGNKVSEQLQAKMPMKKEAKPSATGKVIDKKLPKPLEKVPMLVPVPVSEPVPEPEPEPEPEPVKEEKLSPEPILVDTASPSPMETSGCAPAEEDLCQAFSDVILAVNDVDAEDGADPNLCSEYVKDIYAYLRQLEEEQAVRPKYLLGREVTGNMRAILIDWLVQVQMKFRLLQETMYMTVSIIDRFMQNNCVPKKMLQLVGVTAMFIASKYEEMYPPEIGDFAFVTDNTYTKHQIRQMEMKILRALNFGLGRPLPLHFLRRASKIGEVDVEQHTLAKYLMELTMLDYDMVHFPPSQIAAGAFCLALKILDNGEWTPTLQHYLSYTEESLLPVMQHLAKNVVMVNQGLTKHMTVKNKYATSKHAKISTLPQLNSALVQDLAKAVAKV

Structure (SMILES): CCOC(=O)c1sc(N2N=C(c3ccc(Cl)cc3Cl)CC2c2ccc(OC)cc2)nc1C (stereo not drawn) [Compound 10b, Ethyl-2-(3-(2,4-dichlorophenyl)-5-(4-methoxyphenyl)-4,5-dihydro-1H-pyrazol-1-yl)-4-methylthiazole-5-carboxylate]
- IC50 [1]: 310 ± 12 nM
- IC50 [2]: 5.7 ± 0.5 µM
- IC50 [3]: 6.2 ± 0.9 µM
- A549 cancer cell migration [4]: effective in reducing the cancer cell migration
- inhibition at 10 µM [5]: 47.2 ± 4.9%
- inhibition at 10 µM [6]: 41.5 ± 2.1%
- inhibition at 10 µM [7]: 54.2 ± 3.8%
- inhibition at 10 µM [8]: 48.5 ± 2.3%
- inhibition at 10 µM [9]: 37.7 ± 3.9%
- cells at G2/M phase [10]: 29.2%
- IC50 [11]: 1140 ± 20 nM
- IC50 [12]: 1120 ± 22 nM
- IC50 [13]: 40.7 ± 1 nM
- protein expression level of p-EGFR [14]: significantly downregulated
- protein expression level of p-VEGFR-2 [15]: significantly downregulated

Structure (SMILES): COc1ccc(C2CC(c3ccc(Cl)cc3Cl)=NN2c2nc(C)c(C(=O)Nc3ccccc3)s2)cc1OC (stereo not drawn) [Compound 10d, 2-(3-(2,4-Dichlorophenyl)-5-(3,4-dimethoxyphenyl)-4,5-dihydro-1H-pyrazol-1-yl)-4-methyl-N-phenylthiazole-5-carboxamide]
- IC50 [1]: 245 ± 7 nM
- IC50 [2]: 3.5 ± 0.2 µM
- IC50 [3]: 4.4 ± 0.6 µM
- A549 cancer cell migration [4]: effective in reducing the cancer cell migration
- inhibition at 10 µM [5]: 40.1 ± 2%
- inhibition at 10 µM [6]: 54.1 ± 2.8%
- inhibition at 10 µM [7]: 60.2 ± 2.3%
- inhibition at 10 µM [8]: 60.9 ± 4.3%
- inhibition at 10 µM [9]: 56.5 ± 2%
- cells at G2/M phase [10]: 33.92%
- IC50 [11]: 993 ± 15 nM
- IC50 [12]: 870 ± 31 nM
- IC50 [13]: 32.5 ± 2.2 nM
- protein expression level of p-EGFR [14]: significantly downregulated
- protein expression level of p-VEGFR-2 [15]: significantly downregulated
